In data set [1] the target is T1, phBCCPPurT (Pyrococcus horikoshii, UniProt O58056).
T1 construct: gene purT
The data set can be described thus: biochemical. It counts as binding. The note with it: read-out: apparent Kd.

Data set [2] concerns the molecule itself. The data set can be described thus: SEC. On the technique in general: In gel filtration, larger molecules generally elute earlier.

T1 sequence (O58056 whole entry): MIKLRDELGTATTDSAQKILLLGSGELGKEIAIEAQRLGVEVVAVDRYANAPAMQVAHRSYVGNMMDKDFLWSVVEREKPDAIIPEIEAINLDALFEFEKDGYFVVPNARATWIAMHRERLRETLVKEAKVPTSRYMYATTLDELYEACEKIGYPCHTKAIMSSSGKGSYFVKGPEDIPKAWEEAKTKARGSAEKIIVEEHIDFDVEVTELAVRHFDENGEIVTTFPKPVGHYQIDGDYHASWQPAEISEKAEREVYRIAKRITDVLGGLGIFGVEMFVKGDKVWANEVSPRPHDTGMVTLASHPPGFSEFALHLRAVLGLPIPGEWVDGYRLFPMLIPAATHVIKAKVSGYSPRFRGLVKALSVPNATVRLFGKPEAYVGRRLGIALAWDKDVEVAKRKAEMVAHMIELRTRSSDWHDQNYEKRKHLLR

As to `Nc1ncnc2c1ncn2[C@@H]1O[C@H](CO[P@](=O)(O)O[P@](=O)(O)O[P@@](=O)(O)S)[C@@H](O)[C@H]1O` [ATPγS], the Kd in data set [1] came to 41.8 ± 7.21 µM.

B1: Glycinamide-RNase-transformylase T from Mycobacterium tuberculosis (enzyme)
chain: MIDGWTEEQHEPTVRHERPAAPQDVRRVMLLGSAEPSRELAIALQGLGAEVIAVDGYVGAPAHRIADQSVVVTMTDAEELTAVIRRLQPDFLVTVTAAVSVDALDAVEQADGECTELVPNARAVRCTADREGLRRLAADQLGLPTAPFWFVGSLGELQAVAVHAGFPLLVSPVAGVAGQGSSVVAGPNEVEPAWQRAAGHQVQPQTGGVSPRVCAESVVEIEFLVTMIVVCSQGPNGPLIEFCAPIGHRDADAGELESWQPQKLSTAALDAAKSIAARIVKALGGRGVFGVELMINGDEVYFADVTVCPAGSAWVTVRSQRLSVFELQARAILGLAVDTLMISPGAARVINPDHTAGRAAVGAAPPADALTGALGVPESDVVIFGRGLGVALATAPEVAIARERAREVASRLNVPDSRE
notes: also called MtbPurT; PurT
The term stoichiometry N denotes a count of units in the complex or per binding partner. For the molecule B1, in data set [2], the “stoichiometry N” value is 2.

The record behind these values is publication PMC6968694 (Emerging Microbes & Infections, 2020).
